Results taken from patent US20150105386A1, “4-(4-PYRIDINYL)-BENZAMIDES AND THEIR USE AS ROCK ACTIVITY MODULATORS” (AbbVie Deutschland GmbH & Co KG, priority 2007, published 2015).

target: T1, hROCK-2 (Homo sapiens, UniProt O75116); assay: ROCK-2 Assay (33P-ATP FlashPlate kinase assay, biotinylated S6 peptide); format: biochemical; conditions: hROCK-2 0.8 nM, 5 μM ATP, 1.5 μM biotinylated S6 peptide, room temperature, 60 min
T1 construct: purchased Upstate
Method: The reaction is stopped by addition of 150 μl of 0.1 M EDTA in Dulbecco's PBS. 170 μl from each well are loaded onto a FlashPlate (PerkinElmer) and incubated at room temperature for 30 min.

T1 sequence (O75116 whole entry): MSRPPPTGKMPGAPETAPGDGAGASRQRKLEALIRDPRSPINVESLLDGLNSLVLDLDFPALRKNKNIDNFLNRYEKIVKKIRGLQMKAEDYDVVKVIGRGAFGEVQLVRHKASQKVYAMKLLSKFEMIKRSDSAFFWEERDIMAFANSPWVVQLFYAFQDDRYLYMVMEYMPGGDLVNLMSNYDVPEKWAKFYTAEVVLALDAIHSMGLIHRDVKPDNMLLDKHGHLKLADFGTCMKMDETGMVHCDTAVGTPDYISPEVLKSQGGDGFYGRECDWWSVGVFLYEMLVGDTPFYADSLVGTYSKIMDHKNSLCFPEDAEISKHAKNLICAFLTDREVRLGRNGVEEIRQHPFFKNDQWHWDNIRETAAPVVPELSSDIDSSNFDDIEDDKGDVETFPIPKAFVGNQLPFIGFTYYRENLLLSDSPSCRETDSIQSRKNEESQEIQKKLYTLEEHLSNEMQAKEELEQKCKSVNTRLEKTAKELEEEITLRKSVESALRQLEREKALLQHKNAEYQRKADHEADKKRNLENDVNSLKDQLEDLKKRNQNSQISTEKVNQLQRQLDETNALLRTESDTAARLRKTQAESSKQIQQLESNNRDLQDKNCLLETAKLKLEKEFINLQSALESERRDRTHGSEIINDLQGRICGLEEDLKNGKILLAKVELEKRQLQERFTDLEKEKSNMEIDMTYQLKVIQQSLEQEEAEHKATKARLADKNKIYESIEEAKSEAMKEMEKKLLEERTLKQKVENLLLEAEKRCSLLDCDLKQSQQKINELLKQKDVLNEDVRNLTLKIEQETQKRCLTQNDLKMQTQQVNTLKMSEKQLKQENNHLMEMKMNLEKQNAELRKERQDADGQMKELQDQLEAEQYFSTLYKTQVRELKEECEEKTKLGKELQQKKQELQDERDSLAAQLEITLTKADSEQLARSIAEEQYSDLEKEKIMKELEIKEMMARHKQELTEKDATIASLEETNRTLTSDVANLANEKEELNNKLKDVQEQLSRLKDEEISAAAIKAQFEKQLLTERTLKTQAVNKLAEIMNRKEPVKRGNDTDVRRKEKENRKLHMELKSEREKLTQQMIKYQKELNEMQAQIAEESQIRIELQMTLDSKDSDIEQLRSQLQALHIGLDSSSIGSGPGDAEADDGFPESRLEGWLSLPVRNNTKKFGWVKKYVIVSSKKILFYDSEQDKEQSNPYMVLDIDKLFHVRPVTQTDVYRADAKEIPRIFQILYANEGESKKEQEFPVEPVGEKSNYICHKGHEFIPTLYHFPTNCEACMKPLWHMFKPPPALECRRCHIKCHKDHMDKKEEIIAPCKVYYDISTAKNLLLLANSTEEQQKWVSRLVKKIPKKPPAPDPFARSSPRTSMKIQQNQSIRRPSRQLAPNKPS

Ki	SMILES
50 to 500 nM	COc1cccc([C@H](C)NC(=O)c2ccc(-c3ccncc3)cc2OC)c1 [Example 130, 2-methoxy-N—[(S)-1-(3-methoxy-phenyl)-ethyl]-4-pyridin-4-yl-benzamide]
50 to 500 nM	COc1cccc([C@H](C)NC(=O)c2ccc(-c3ccncc3)c(F)c2)c1 [Example 236, 3-fluoro-N—[(S)-1-(3-methoxy-phenyl)-ethyl]-4-pyridin-4-yl-benzamide]
50 to 500 nM	O=C(NC(c1ccccc1)[C@@H](O)c1ccccc1)c1ccc(-c2ccncc2)cc1 (stereo partly drawn) [Example 34, N-[(2S)-2-hydroxy-1,2-diphenylethyl]-4-pyridin-4-ylbenzamide]
50 to 500 nM	C[C@@H](NC(=O)c1ccc(-c2ccncc2)cc1)c1cc(C(F)(F)F)cc(C(F)(F)F)c1 [Example 89, N-{(1R)-1-[3,5-bis(trifluoromethyl)phenyl]ethyl}-4-pyridin-4-ylbenzamide]
50 to 500 nM	COc1ccccc1[C@@H](C)NC(=O)c1ccc(-c2ccncc2C)cc1 [Example 175, N—[(R)-1-(2-methoxy-phenyl)-ethyl]-4-(3-methyl-pyridin-4-yl)-benzamide]
50 to 500 nM	CC(NC(=O)c1ccc(-c2ccncc2)cc1)c1ccco1 (centres unmarked) [Example 53]
50 to 500 nM	COc1ccc(C(CN)NC(=O)c2ccc(-c3ccncc3)cc2)cc1 (centres unmarked) [Example 44, N-[2-amino-1-(4-methoxyphenyl)ethyl]-4-pyridin-4-ylbenzamide]
50 to 500 nM	Cc1ccc(C(CO)NC(=O)c2ccc(-c3ccncc3)cc2)c(C)c1 (centres unmarked) [Example 40, N-[1-(2,4-dimethylphenyl)-2-hydroxyethyl]-4-pyridin-4-ylbenzamide]
50 to 500 nM	C[C@@H](NC(=O)c1ccc(-c2ccncc2)c(F)c1)c1ccc2ccccc2c1 [Example 229, 3-fluoro-N—((R)-1-naphthalen-2-yl-ethyl)-4-pyridin-4-yl-benzamide]
50 to 500 nM	COCC(Cc1ccccc1)NC(=O)c1ccc(-c2ccncc2)cc1 (centres unmarked) [Example 16, N-(1-benzyl-2-methoxyethyl)-4-pyridin-4-ylbenzamide]
< 50 nM	Cc1cnccc1-c1ccc(C(=O)N[C@H](C)c2ccc(F)cc2)cc1 [Example 180, N—[(R)-1-(4-fluoro-phenyl)-ethyl]-4-(3-methyl-pyridin-4-yl)-benzamide]
< 50 nM	C[C@@H](NC(=O)c1ccc(-c2ccncc2)cc1Cl)c1cccc2ccccc12 [Example 192, 2-chloro-N—((R)-1-naphthalen-1-yl-ethyl)-4-pyridin-4-yl-benzamide]
50 to 500 nM	CC(NC(=O)c1ccc(-c2ccncc2)cc1)c1cccnc1 (centres unmarked) [Example 79, 4-pyridin-4-yl-N-(1-pyridin-3-ylethyl)benzamide]
50 to 500 nM	Cc1cnccc1-c1ccc(C(=O)N[C@H](C)c2ccc3ccccc3c2)cc1 [Example 170, 4-(3-methyl-pyridin-4-yl)-N—((R)-1-naphthalen-2-yl-ethyl)-benzamide]
< 50 nM	Cc1ccc(C(CN)NC(=O)c2ccc(-c3ccncc3)cc2)cc1 (centres unmarked) [Example 46, N-[2-amino-1-(4-methylphenyl)ethyl]-4-pyridin-4-ylbenzamide]
< 50 nM	Cc1cnccc1-c1ccc(C(=O)NC(CO)c2cccc3ccccc23)cc1 (centres unmarked) [Example 172, N-(2-hydroxy-1-naphthalen-1-yl-ethyl)-4-(3-methyl-pyridin-4-yl)-benzamide]
50 to 500 nM	O=C(N[C@H](CO)Cc1c[nH]c2ccccc12)c1ccc(-c2ccncc2)cc1 [Example 14, N-[(1S)-2-hydroxy-1-(1H-indol-3-ylmethyl)ethyl]-4-pyridin-4-ylbenzamide]
< 50 nM	COc1cccc([C@@H](C)NC(=O)c2ccc(-c3ccncc3)cc2C)c1 [Example 96, N—[(R)-1-(3-methoxy-phenyl)-ethyl]-2-methyl-4-pyridin-4-yl-benzamide]
50 to 500 nM	CC(NC(=O)c1ccc(-c2ccncc2)cc1)c1ccccn1 (centres unmarked) [Example 76, 4-pyridin-4-yl-N-(1-pyridin-2-ylethyl)benzamide]
< 50 nM	COc1cc(-c2ccncc2)ccc1C(=O)N[C@H](C)c1cccc2ccccc12 [Example 106, 2-methoxy-N—((R)-1-naphthalen-1-yl-ethyl)-4-pyridin-4-yl-benzamide]
< 50 nM	Cc1cnccc1-c1ccc(C(=O)N[C@H](C)c2cccc(C(F)(F)F)c2)cc1 [Example 181, 4-(3-methyl-pyridin-4-yl)-N—[(R)-1-(3-trifluoromethyl-phenyl)-ethyl]-benzamide]
< 50 nM	O=C(NC(CN1CCCCC1)c1ccccc1)c1ccc(-c2ccncc2)cc1 (centres unmarked) [Example 36, N-(1-phenyl-2-piperidin-1-ylethyl)-4-pyridin-4-ylbenzamide]
50 to 500 nM	O=C(NC(c1ccccc1)c1ccc(Cl)cc1)c1ccc(-c2ccncc2)cc1 (centres unmarked) [Example 49, N-[(4-chlorophenyl)(phenyl)methyl]-4-pyridin-4-ylbenzamide]

Ki	SMILES
< 50 nM	COc1cccc([C@@H](C)NC(=O)c2ccc(-c3ccncc3F)cc2C)c1 [Example 246, 4-(3-fluoro-pyridin-4-yl)-N—[(R)-1-(3-methoxy-phenyl)-ethyl]-2-methyl-benzamide]
< 50 nM	CCOc1cc(-c2ccncc2)ccc1C(=O)N[C@H](C)c1cccc(OC)c1 [Example 249, 2-ethoxy-N—[(R)-1-(3-methoxy-phenyl)-ethyl]-4-pyridin-4-yl-benzamide]
< 50 nM	COc1cccc([C@@H](C)NC(=O)c2ccc(-c3ccncc3C)cc2)c1 [Example 101, N—[(R)-1-(3-Methoxy-phenyl)-ethyl]-4-(3-methyl-pyridin-4-yl)-benzamide]
< 50 nM	O=C(NC(CN1CCOCC1)c1ccccc1)c1ccc(-c2ccncc2)cc1 (centres unmarked) [Example 32, N-(2-morpholin-4-yl-1-phenylethyl)-4-pyridin-4-ylbenzamide]
< 50 nM	COc1cc(-c2ccncc2)ccc1C(=O)NC(CO)c1cc(Cl)cc(Cl)c1 (centres unmarked) [Example 135, N-[1-(3,5-dichloro-phenyl)-2-hydroxy-ethyl]-2-methoxy-4-pyridin-4-ylbenzamide]
< 50 nM	COc1cccc([C@@H](C)NC(=O)c2ccc(-c3ccncc3)cc2OC)c1 [Example 103, 2-methoxy-N—[(R)-1-(3-methoxy-phenyl)-ethyl]-4-pyridin-4-yl-benzamide]
50 to 500 nM	CC(C)(C)OC(=O)NCC(NC(=O)c1ccc(-c2ccncc2)cc1)c1ccccc1 (centres unmarked) [Example 3, tert-Butyl-{2-phenyl-2-[(4-pyridin-4-ylbenzoyl)amino]ethyl}carbamate]
50 to 500 nM	COc1ccccc1C(CO)NC(=O)c1ccc(-c2ccncc2C)cc1 (centres unmarked) [Example 171, N-[2-hydroxy-1-(2-methoxy-phenyl)-ethyl]-4-(3-methyl-pyridin-4-yl)-benzamide]
50 to 500 nM	Cc1cnccc1-c1ccc(C(=O)NC2CCCc3ccccc32)cc1 (centres unmarked) [Example 160, 4-(3-methyl-pyridin-4-yl)-N-(1,2,3,4-tetrahydro-naphthalen-1-yl)-benzamide]
< 50 nM	COc1cccc([C@H](C)NC(=O)c2ccc(-c3ccncc3)c(C)c2)c1 [Example 102, N—[(S)-1-(3-methoxy-phenyl)-ethyl]-3-methyl-4-pyridin-4-yl-benzamide]
< 50 nM	COc1cccc([C@@H](C)NC(=O)c2ccc(-c3ccncc3F)cc2OC)c1 [Example 247, 4-(3-fluoro-pyridin-4-yl)-2-methoxy-N—[(R)-1-(3-methoxy-phenyl)-ethyl]-benzamide]
< 50 nM	COc1cc(-c2ccncc2)ccc1C(=O)N[C@H](CCO)c1ccccc1 [Example 94, N—((R)-3-hydroxy-1-phenyl-propyl)-2-methoxy-4-pyridin-4-yl-benzamide]
< 50 nM	C[C@@H](NC(=O)c1ccc(-c2ccncc2)cc1)c1cccc(C(F)(F)F)c1 [Example 87, 4-pyridin-4-yl-N-{(1R)-1-[3-(trifluoromethyl)phenyl]ethyl}benzamide]
50 to 500 nM	O=C(N[C@H](CO)Cc1ccc(O)cc1)c1ccc(-c2ccncc2)cc1 [Example 15, N-[(1S)-2-hydroxy-1-(4-hydroxybenzyl)ethyl]-4-pyridin-4-ylbenzamide]
50 to 500 nM	Cc1ccc([C@@H](C)NC(=O)c2ccc(-c3ccncc3)cc2)cc1 [Example 82, N-[(1R)-1-(4-methylphenyl)ethyl]-4-pyridin-4-ylbenzamide]
< 50 nM	Cc1ccc(C(CO)NC(=O)c2ccc(-c3ccncc3)cc2)cc1C (centres unmarked) [Example 41, N-[1-(3,4-dimethylphenyl)-2-hydroxyethyl]-4-pyridin-4-ylbenzamide]
50 to 500 nM	Cc1cnccc1-c1ccc(C(=O)N[C@H](C)c2ccc(Cl)cc2)cc1 [Example 168, N—[(R)-1-(4-chloro-phenyl)-ethyl]-4-(3-methyl-pyridin-4-yl)-benzamide]
50 to 500 nM	COc1ccc(C(C)NC(=O)c2ccc(-c3ccncc3)cc2)c2ccccc12 (centres unmarked) [Example 189, N-[1-(4-methoxy-naphthalen-1-yl)-ethyl]-4-pyridin-4-yl-benzamide]
< 50 nM	COc1cccc([C@@H](C)NC(=O)c2ccc(-c3ccncc3)cc2F)c1 [Example 245, 2-fluoro-N—[(R)-1-(3-methoxy-phenyl)-ethyl]-4-pyridin-4-yl-benzamide]
< 50 nM	COc1cccc([C@@H](C)NC(=O)c2ccc(-c3ccncc3)c(Cl)c2)c1 [Example 156, 3-Chloro-N—[(R)-1-(3-methoxy-phenyl)-ethyl]-4-pyridin-4-yl-benzamide]
< 50 nM	O=C(N[C@H](CO)Cc1ccccc1)c1ccc(-c2ccncc2)cc1 [Example 7, N-[(1S)-1-benzyl-2-hydroxyethyl]-4-pyridin-4-ylbenzamide]
50 to 500 nM	C[C@@H](NC(=O)c1ccc(-c2ccncc2)cc1)c1ccccc1C(F)(F)F [Example 86, 4-pyridin-4-yl-N-{(1R)-1-[2-(trifluoromethyl)phenyl]ethyl}benzamide]
< 50 nM	COc1cccc([C@@H](C)NC(=O)c2ccc(-c3ccncc3)cc2Cl)c1 [Example 243, 2-chloro-N—[(R)-1-(3-methoxy-phenyl)-ethyl]-4-pyridin-4-yl-benzamide]

SMILES	Ki
CC(C)COc1cccc(C(C)NC(=O)c2ccc(-c3ccncc3)cc2)c1 (centres unmarked) [Example 153, N-[1-(3-isobutoxy-phenyl)-ethyl]-4-pyridin-4-yl-benzamide]	< 50 nM
